{"source": "patent US7985745B2", "about": "“Method for pain treatment” (Abbott Laboratories, priority 2006, dated 2011)", "key": {"thermal hyperalgesia": {"test_system": "thermal hyperalgesia", "experiment": "Complete Freund's adjuvant-induced thermal hyperalgesia", "format": "in vivo, rat", "conditions": "30 minutes before testing, 48 hours after CFA, thermal stimulus", "experimental": "To assess the effectiveness of representative compounds of the invention against hyperalgesia, animals were tested in an acute model of adjuvant-induced thermal hyperalgesia (see for example, Honore, et al. Behavioural Brain Research 167 (2006) 355-364; Carroll, et al. US Patent application US 2006/0025614A 1). To prepare animals for the model, a solution of Complete Freund's adjuvant (150 microliters of a 50% aqueous solution, Sigma Chemical Company, St. Louis, Mo.) was injected into the plantar surface of test paw of the animal (rat). Rats so injected develop a hyperalgesia to thermal stimulation which is assessed 48 hours after injection of the Complete Freund's adjuvant using a commercially available paw thermal stimulator (UARDG, Dept. of Anesthesiology, Univ. California at San Diego, La Jolla, Calif.). For testing, rats were placed individually in a so-called ‘hot box’ (i.e. Plexiglass cubicles mounted on a glass surface) maintained at 30° C., and allowed a 30 minute habituation period. A thermal stimulus, in the form of radiant heat emitted from a focused projection bulb, was then applied to the plantar surface of each hind paw. The stimulus current was maintained (e.g. at 4.5 Amp) and the time of exposure set to limit the extent of possible tissue damage (e.g. maximum of 20 seconds exposure to thermal heating from the projection bulb). The time (in seconds) for the withdrawal of the paw that was injected with the Complete Freund's adjuvant (CFA) and subjected to the thermal stimulus was recorded, and this was compared to the time (in seconds) for withdrawal of the uninjected paw subjected to the same thermal stimulus. […] To test the effect of a compound on the hyperalgesia, the test compound is dissolved in a vehicle (e.g. water or saline) and administered by i.p. (intraperitoneal) injection 30 minutes before the testing of the animal's response to the thermal stimulus to the paws. The antihyperalgesic activity of the compound in blocking the pain is shown by an increase in the time to withdraw the CFA-injected paw subjected to thermal stimulus. Experiments are done with single-dose and escalating-dosages of the test compound, and dose response curves constructed to determine ED50 values."}, "histamine H4 receptor [1]": {"biological_target": "T1, histamine H4 receptor (Homo sapiens, UniProt Q9H3N8)", "T1 construct": "expressed in transfected cells; host or cells: HEK-293 cells, transient transfection with pCINeo vector; membranes", "T1 sequence (Q9H3N8 whole entry, species assumed)": "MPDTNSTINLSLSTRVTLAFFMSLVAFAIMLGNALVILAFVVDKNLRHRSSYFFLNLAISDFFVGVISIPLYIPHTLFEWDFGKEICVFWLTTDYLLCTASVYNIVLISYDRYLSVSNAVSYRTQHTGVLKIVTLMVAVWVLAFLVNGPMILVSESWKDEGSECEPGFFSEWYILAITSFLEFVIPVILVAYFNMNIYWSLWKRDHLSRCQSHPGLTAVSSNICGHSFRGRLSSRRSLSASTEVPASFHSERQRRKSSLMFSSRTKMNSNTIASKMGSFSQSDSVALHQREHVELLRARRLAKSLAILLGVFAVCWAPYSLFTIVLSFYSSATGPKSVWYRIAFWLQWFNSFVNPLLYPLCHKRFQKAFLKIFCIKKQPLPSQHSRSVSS", "experiment": "FLIPR Ca2+ assay in HEK-293 cells stably expressing histamine H4 receptor and Gαqi5", "format": "cell-based", "conditions": "Kb for antagonists and inverse agonists, EC50 for partial agonists; block of histamine-induced Ca2+ increase", "text": "Histamine H4 receptors from mammalian species have been cloned. Methods to clone, express, and assess the potency and functional activity of such cloned genes are well known to those skilled in the art of molecular biology. […] Before testing, cells are loaded with a Ca^+2 sensitive fluorescent dye, in this case Fluo-4. In the case of partial agonist or agonist ligands, addition of compound to the cells leads to the increase in intracellular Ca^+2 which is detected by FLIPR (Fluorescence Imaging Plate Reader; Molecular Devices, Sunnyvale, Calif.) technology. […] The fluorescence intensities measured before addition of the test compound are subtracted from the fluorescence intensities at later time points. Peak response values determined at each concentration of ligand are expressed as a percentage of the response obtained with the full agonist histamine. Concentration versus response data are analyzed to obtain compound potency as Kb values for antagonists and inverse agonists and as EC50 values for partial agonists."}, "histamine H4 receptor [2]": {"biological_target": "T1, histamine H4 receptor", "experiment": "3H-histamine competition binding assay, membranes of transfected HEK-293 cells", "experimental": "In this assay, membranes were prepared from HEK-293 cells transiently transfected with the pCINeo expression vector harboring the histamine H4 receptor by homogenization of the cells on ice in TE buffer (50 mM Tris-HCl buffer, pH 7.4, containing 5 mM EDTA), 1 mM benzamidine, 2 μg/ml aprotinin, 1 μg/ml leupeptin, and 1 μg/ml pepstatin. The homogenate was centrifuged at 40,000 g for 20 minutes at 4° C. This step was repeated, and the resulting pellet was resuspended in TE buffer. Aliquots were frozen at −70° C. until needed. On the day of assay, membranes were thawed and diluted with TE buffer. Competition radioligand binding assays were performed with increasing concentrations of test compound in the presence of [^3H]-histamine incubated at 25° C. for 1 h in a total volume of 0.5 ml of 50 mM Tris, 5 mM EDTA, pH 7.4. All binding reactions were terminated by filtration under vacuum onto polyethylenimine (0.3%) presoaked Unifilters (PerkinElmer Life Sciences) or Whatman GF/B filters (Whatman, Clifton, N.J.) followed by three brief washes with 4 ml of ice-cold TE buffer. Bound radiolabel was determined by liquid scintillation counting. For all of the radioligand competition binding assays, IC50 values and Hill slopes were determined by Hill transformation of the data and Ki values were determined by the Cheng-Prusoff equation."}, "inflammatory pain": {"test_system": "inflammatory pain", "experiment": "Carrageenan-induced thermal hyperalgesia, hotbox assay", "format": "in vivo", "conditions": "90 minutes after carrageenan, tested 30 minutes after dosing", "experimental": "To assess the effectiveness of representative compounds of the invention against acute model inflammatory pain, animals were tested in an acute model of carrageenan-induced thermal hyperalgesia (see for example, Honore, et al. Behavioural Brain Research 167 (2006) 355-364; Porreca, et al. Journal of Pharmacology and Experimental Therapeutics (2006) vol. 318 pp. 195-205). Carrageenan was injected into the test paw of the animal, and after 90 minutes, the test drug was administered by intraperitoneal dosing. The effect on thermal hyperalgesia was assessed in a hotbox assay which was done 30 minutes after the intraperitoneal dosing of the test drug, and the MPE (maximal percent effect) reported by comparison to the control paw (not injected with carrageenan), according to 100 times the withdrawal latency of the carrageenan injected paw (in seconds) divided by the withdrawal latency of the control (not injected with carrageenan) paw."}, "neuropathic pain": {"test_system": "neuropathic pain", "experiment": "Chung model: L5/L6 spinal nerve ligation, mechanical allodynia by von Frey filaments", "format": "in vivo, rat", "conditions": "100 micromole/kg i.p., 30 minutes before testing", "experimental": "Animals were prepared for testing, by use of a surgical procedure that induces neuropathic pain in one paw. Male Sprague Dawley rats were purchased from Charles River (Portage, Mich.). Prior to surgery, animals were housed in groups and maintained in a temperature-regulated environment. Following nerve ligation surgery, animals were housed in groups, and had access to food and water ad libitum.\nThe L5 and L6 spinal nerves of anesthetized rats were tightly ligated in a manner described previously (see Kim and Chung, Pain (1992) vol. 50 pp. 355-363). An incision was made on the dorsal portion of the hip and the muscle was blunt-dissected to reveal the spinal processes. The L6 transverse process was removed, and the left side L5 and L6 spinal nerves were tightly ligated with 5.0 braided silk suture. The wound was cleaned, the membrane sewn with 4.0 dissolvable Vicryl suture and the skin closed with wound clips. The paw affected by the surgical procedure (the left paw) develops an allodynic response, a hypersensitivity to mechanical and other stimuli; neuropathic pain is assessed as an increased sensitivity in the surgically affected (left) allodynic paw compared to the control paw on the right side, and measured by comparing the response of the (left side) allodynic paw to the response of the unaffected right side control paw.\nFor the assessment of neuropathic pain, mechanical allodynia in the affected paw of animals that had undergone spinal nerve ligation was evaluated using testing with von Frey filaments. As described previously by S. R. Chaplan, et al (“Quantitative assessment of tactile allodynia in the rat paw” J. Neurosci. Meth. (1994) vol. 53 pp. 55-63), two weeks following surgery rats were acclimated to a testing box constructed of plexiglass with a wire mesh floor which allowed access to the plantar surface of the animal's hindpaws. Using an Up-Down method (Dixon, Annual Rev. Pharmacol. Toxicol. (1980) vol. 20, pp. 441-462; Chaplan et al. “Quantitative assessment of tactile allodynia in the rat paw” J. Neuroscience Methods (1994) vol. 53 pp. 55-63), von Frey filaments of increasing stiffness were applied to the plantar surface of the hindpaws and the withdrawal response of the animals was observed; for the surgically affected paw with neuropathic pain (the left side paw) the baseline level of allodynia has a withdrawal threshold of ≦4 g of pressure. By comparison, for the control paw without allodynia (in this case the right side paw), the typical withdrawal pressure is around 15 g. Representative compounds of the invention, administered intraperitoneally 30 minutes before testing, are able to reduce the symptoms of neuropathic pain and induce a dose-dependent increase in the withdrawal threshold for allodynic (left side) limb, up to a maximum effect of 15 g. The efficacy of the compound in reducing neuropathic pain at different doses is determined by comparing response in the surgery-affected paw versus the response in the control paw. This is expressed as the MPE (maximum percent effect), or 100 times the withdrawal threshold of the allodynic (left side) divided by the withdrawal threshold of the control (right side)."}, "osteoarthritis pain": {"test_system": "osteoarthritis pain", "experiment": "MIA-induced knee joint osteoarthritis model, hind limb grip force", "format": "in vivo, rat", "conditions": "100 micromole/kg i.p.; grip force 20 days after MIA; % return to normalcy vs naïve group", "experimental": "Unilateral knee joint osteoarthritis was induced in rats by a single intra-articular (i.a.) injection of sodium monoiodoacetate (MIA) (Sigma-Aldrich, St. Louis, Mo.) (3 mg in 50 ul sterile isotonic saline) into the right knee joint cavity under light (1-3%) isoflurane anesthesia.\nPain behavior was assessed by measurement of hind limb grip force (GF) in adult osteoarthritic rats. Following the unilateral injection of MIA (male Sprague Dawley, 325-350 g, tested at 20 days following MIA injection), a behavioral measure of activity-induced pain was carried out. Measurements of the peak hind limb grip force were conducted by recording the maximum compressive force (CFmax), in grams of force, exerted on a hind limb strain gauge setup, in a commercially available grip force measurement system (Columbus Instruments, Columbus, Ohio).\nDuring testing, each rat was gently restrained by grasping it around its rib cage and then allowed to grasp the wire mesh frame attached to the strain gauge. The experimenter then moved the animal in a rostral-to-caudal direction until the grip was broken. Each rat was sequentially tested twice at approximately 2-3 min interval to obtain a raw mean grip force (CFmax). This raw mean grip force data was in turn converted to a maximum hindlimb cumulative compressive force (CFmax), as the grams of force/kg of body weight, for each animal.\nFor evaluating the compound effects, the hind limb grip force was conducted 20 days following the intra-articular injection of MIA. A group of age-matched naïve (not injected with MIA) animals was added as a comparator to the drug-dosed groups. The vehicle control response for each group of MIA-treated animals was defined as the 0% response (0% effect), whereas the naïve control group was defined as the normal response and as 100% effect. The % effects for each dose group was expressed as % return of response to normalcy, compared to the naïve group. That is, the % effect=(Treatment CFmax−Vehicle CFmax)/[…]]×100). All experiments evaluating drug effects in this model were conducted in a randomized blinded fashion."}, "[3]": {"test_system": "mechanical allodynia after skin incision", "experiment": "Surgical skin incision model, mechanical allodynia by von Frey hair", "format": "in vivo, rat", "experimental": "This is a surgical skin incision model (Joshi, et al. Pain 123 (2006) 75-82). Animals (rats) were prepared for testing by subjecting them to a surgical procedure carried out under sterile conditions, where the plantaris muscle was elevated and incised longitudinally with the origin and insertion of the muscle remaining intact. The skin was then closed with two mattress sutures (e.g. 5-0 nylon sutures). After surgery, animals were allowed to recover on a warming plate and housed individually in cages with soft bedding. […] Animals were tested for mechanical allodynia using von Frey hair mechanical stimulation 2, 24, and 48 h after surgery as described for the Chung model."}, "[4]": {"conditions": "displacement of [3H]-histamine, 25° C., 1 h, read-out: Potency in Competition Binding Assay"}}, "note": "Where two headings read alike, the source gives them in different places.", "data": [{"smiles": "CN1CCN(c2cc(-c3cccnc3)nc(N)n2)CC1.O=C(O)/C=C\\C(=O)O", "note": "[Example 2, 4-(4-Methylpiperazin-1-yl)-6-(pyridin-3-yl)pyrimidin-2-amine, maleate]", "values": [{"measurement": "melting point", "value": "175 to 178 °C (dec.)"}, {"measurement": "MPE", "setting": "thermal hyperalgesia; 30 micromole/kg i.p.", "value": 51, "unit": "%"}, {"measurement": "MPE", "setting": "thermal hyperalgesia; 100 micromole/kg i.p.", "value": 83, "unit": "%"}, {"measurement": "Potency in the FLIPR assay", "setting": "histamine H4 receptor [1]", "value": 200, "unit": "nM"}, {"measurement": "Ki", "setting": "histamine H4 receptor [2]; [4]", "value": 178, "unit": "nM"}]}, {"smiles": "Nc1nc2c(c(N3CC[C@@H](N)C3)n1)CCCc1ccccc1-2", "note": "[Example 4, 4-((3R)-3-Amino-pyrrolidin-1-yl)-6,7-dihydro-5H-benzo[6,7]cyclohepta[1,2-d]pyrimidin-2-ylamine]", "values": [{"measurement": "MPE", "setting": "inflammatory pain; 100 micromole/kg i.p.", "value": 68, "unit": "%"}, {"measurement": "MPE", "setting": "neuropathic pain", "value": 47, "unit": "%"}]}, {"smiles": "Nc1nc2c(c(N3CCNCC3)n1)CCCc1ccccc1-2", "note": "[Example 5, 4-piperazin-1-yl-6,7-dihydro-5H-benzo[6,7]cyclohepta[1,2-d]pyrimidin-2-ylamine]", "values": [{"measurement": "MPE", "setting": "inflammatory pain; 100 micromole/kg i.p.", "value": 23, "unit": "%"}, {"measurement": "Potency in the FLIPR assay", "setting": "histamine H4 receptor [1]", "value": 15, "unit": "nM"}, {"measurement": "Ki", "setting": "histamine H4 receptor [2]; [4]", "value": 80, "unit": "nM"}, {"measurement": "MPE", "setting": "neuropathic pain", "value": 28, "unit": "%"}]}, {"smiles": "O=S(=O)(NCCc1c[nH]cn1)NCc1ccc(Cl)c(Cl)c1", "note": "[Example 7, Sulfamide, N-[(3,4-dichlorophenyl)methyl]-N′-[2-(1H-imidazol-4-yl)ethyl]-]", "values": [{"measurement": "MPE", "setting": "inflammatory pain; 3 micromole/kg i.p.", "value": 33, "unit": "%"}, {"measurement": "MPE", "setting": "inflammatory pain; 10 micromole/kg i.p.", "value": 42, "unit": "%"}, {"measurement": "MPE", "setting": "inflammatory pain; 30 micromole/kg i.p.", "value": 93, "unit": "%"}, {"measurement": "% Effect", "setting": "osteoarthritis pain", "value": 22, "unit": "%"}, {"measurement": "MPE", "setting": "[3]; 3 micromole/kg i.p.", "value": 33, "unit": "%"}, {"measurement": "MPE", "setting": "[3]; 10 micromole/kg i.p.", "value": 50, "unit": "%"}, {"measurement": "Potency in the FLIPR assay", "setting": "histamine H4 receptor [1]", "value": 34, "unit": "nM"}, {"measurement": "Ki", "setting": "histamine H4 receptor [2]", "value": 33, "unit": "nM"}]}]}
